Legend:
MMP-2 [1] = test: Substrate phage display with NGS: relative probability (RP) of P3-P1' tetramer clusters; type: biochemical, human; settings: MMP2;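 further: ratio of tetramer probability after protease selection to that in naive phage library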
MMP-2 [2] = molecular target: T1, MMP-2 (Homo sapiens, UniProt P08253); test: K(obs) of individual phage substrates (set of 1369); type: biochemical; settings: MMP2
T1 sequence (P08253 110-660): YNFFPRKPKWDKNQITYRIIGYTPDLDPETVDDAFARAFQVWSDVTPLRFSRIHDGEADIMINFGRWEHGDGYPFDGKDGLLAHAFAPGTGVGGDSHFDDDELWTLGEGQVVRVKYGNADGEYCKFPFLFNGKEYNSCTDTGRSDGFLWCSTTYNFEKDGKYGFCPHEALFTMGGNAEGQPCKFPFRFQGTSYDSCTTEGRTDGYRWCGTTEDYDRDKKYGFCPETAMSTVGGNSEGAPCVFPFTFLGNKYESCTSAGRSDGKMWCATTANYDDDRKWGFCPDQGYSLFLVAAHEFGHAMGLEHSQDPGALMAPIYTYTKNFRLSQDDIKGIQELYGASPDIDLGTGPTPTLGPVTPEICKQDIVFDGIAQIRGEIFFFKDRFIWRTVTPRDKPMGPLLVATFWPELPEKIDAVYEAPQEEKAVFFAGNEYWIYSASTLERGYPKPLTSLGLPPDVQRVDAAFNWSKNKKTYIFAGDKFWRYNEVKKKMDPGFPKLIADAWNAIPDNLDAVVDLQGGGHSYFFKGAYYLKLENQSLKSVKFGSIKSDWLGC

MMP-9 = MMP-9 (Homo sapiens, UniProt P14780); test: as above; type: biochemical; settings: MMP9
Sequence of MMP-9 (P14780 94-707): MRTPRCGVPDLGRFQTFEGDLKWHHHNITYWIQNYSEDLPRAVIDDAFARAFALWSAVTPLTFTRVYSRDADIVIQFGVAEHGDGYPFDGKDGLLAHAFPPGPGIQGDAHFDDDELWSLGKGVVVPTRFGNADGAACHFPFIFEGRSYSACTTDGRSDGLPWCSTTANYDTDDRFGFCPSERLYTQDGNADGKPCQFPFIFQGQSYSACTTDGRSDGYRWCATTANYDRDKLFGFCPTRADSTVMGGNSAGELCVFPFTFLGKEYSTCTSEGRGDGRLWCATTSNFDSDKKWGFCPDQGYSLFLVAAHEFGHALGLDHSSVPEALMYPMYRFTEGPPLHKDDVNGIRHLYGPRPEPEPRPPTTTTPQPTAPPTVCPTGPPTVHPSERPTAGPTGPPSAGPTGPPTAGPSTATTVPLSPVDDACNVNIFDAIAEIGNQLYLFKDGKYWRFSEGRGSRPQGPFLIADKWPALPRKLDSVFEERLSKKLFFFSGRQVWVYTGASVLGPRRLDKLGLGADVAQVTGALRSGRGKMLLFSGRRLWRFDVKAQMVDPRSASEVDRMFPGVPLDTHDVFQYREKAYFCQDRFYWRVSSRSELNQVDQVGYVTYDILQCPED

[3] = RP of the P3-P1' tetramer contained in the substrate
[4] = individual phage substrate of the set of 1369 peptides, cleavage position marked by '-'
[5] = individual phage substrate of the set of 1369 peptides, dash in the sequence marks the cleavage position
[6] = RP of the P3-P1' tetramer contained in the substrate (substrate phage display with NGS)
[7] = individual phage substrates, set of 1369 peptides, cleavage position marked by hyphen in sequence
[8] = individual phage substrates, set of 1369 peptides, hyphen in sequence marks cleavage position
[9] = individual phage substrates, set of 1369 peptides, cleavage position marked by '-' in the sequence
[10] = individual phage substrates, set of 1369 peptides, '-' marks the cleavage position (P1-P1')
[11] = individual phage substrate from the set of 1369 peptides, cleavage position marked by the dash in the sequence
[12] = individual phage substrates, set of 1369 peptides, dash in sequence marks cleavage position

Substance	Kobs (MMP-2 [2]; [9])	Kobs (MMP-9; [10])	Kobs (MMP-2 [2]; [11])	Kobs (MMP-9; [12])	further results
AAWAS-ITASG	–	–	–	–	relative probability (RP) (MMP-2 [1]; [3]): 12.5247; Kobs (MMP-2 [2]; [4]): 6396.07 M⁻¹ s⁻¹; Kobs (MMP-9; [5]): 0 M⁻¹ s⁻¹
ACIWS-LTASG	–	–	–	–	relative probability (RP) (MMP-2 [1]; [3]): 5.404; Kobs (MMP-2 [2]; [4]): 27.918 M⁻¹ s⁻¹; Kobs (MMP-9; [5]): 355.093 M⁻¹ s⁻¹
AFLSH-WTASG	–	–	–	–	relative probability (RP) (MMP-2 [1]; [6]): 23.1226; Kobs (MMP-2 [2]; [7]): 12792.1 M⁻¹ s⁻¹; Kobs (MMP-9; [8]): 0 M⁻¹ s⁻¹
AGPQP-LTASG	–	–	–	–	relative probability (RP) (MMP-2 [1]; [6]): 30.3595; Kobs (MMP-2 [2]; [7]): 12792.1 M⁻¹ s⁻¹; Kobs (MMP-9; [8]): 12792.1 M⁻¹ s⁻¹
AGVRY-LTASG	–	–	–	–	relative probability (RP) (MMP-2 [1]; [6]): 18.3724; Kobs (MMP-2 [2]; [7]): 5889.62 M⁻¹ s⁻¹; Kobs (MMP-9; [8]): 7815.03 M⁻¹ s⁻¹
AHFAH-LTASG	–	–	–	–	relative probability (RP) (MMP-2 [1]; [6]): 19.6504; Kobs (MMP-2 [2]; [7]): 2687.73 M⁻¹ s⁻¹; Kobs (MMP-9; [8]): 0 M⁻¹ s⁻¹
AHVFA-LTASG	–	–	–	–	relative probability (RP) (MMP-2 [1]; [6]): 11.8827; Kobs (MMP-2 [2]; [7]): 4205.91 M⁻¹ s⁻¹; Kobs (MMP-9; [8]): 8941.32 M⁻¹ s⁻¹
AHYAS-LTASG	–	–	–	–	relative probability (RP) (MMP-2 [1]; [3]): 26.9916; Kobs (MMP-2 [2]; [4]): 10866.7 M⁻¹ s⁻¹; Kobs (MMP-9; [5]): 0 M⁻¹ s⁻¹
AKVMS-LTASG	–	–	–	–	relative probability (RP) (MMP-2 [1]; [6]): 14.6983; Kobs (MMP-2 [2]; [7]): 1513.13 M⁻¹ s⁻¹; Kobs (MMP-9; [8]): 2218.08 M⁻¹ s⁻¹
AMPLH-MTASG	–	–	–	–	relative probability (RP) (MMP-2 [1]; [6]): 30.0095; Kobs (MMP-2 [2]; [7]): 6688.74 M⁻¹ s⁻¹; Kobs (MMP-9; [8]): 7386.83 M⁻¹ s⁻¹
ANYSN-ITASG	–	–	–	–	relative probability (RP) (MMP-2 [1]; [6]): 14.6847; Kobs (MMP-2 [2]; [7]): 4470.66 M⁻¹ s⁻¹; Kobs (MMP-9; [8]): 0 M⁻¹ s⁻¹
APVLA-LTASG	–	–	–	–	relative probability (RP) (MMP-2 [1]; [6]): 13.5229; Kobs (MMP-2 [2]; [7]): 12792.1 M⁻¹ s⁻¹; Kobs (MMP-9; [8]): 6688.74 M⁻¹ s⁻¹
APYNH-LTASG	–	–	–	–	relative probability (RP) (MMP-2 [1]; [3]): 3.693; Kobs (MMP-2 [2]; [4]): 1327.88 M⁻¹ s⁻¹; Kobs (MMP-9; [5]): 990.764 M⁻¹ s⁻¹
ARIEY-LTASG	–	–	–	–	relative probability (RP) (MMP-2 [1]; [3]): 5.366; Kobs (MMP-2 [2]; [4]): 1816.46 M⁻¹ s⁻¹; Kobs (MMP-9; [5]): 654.784 M⁻¹ s⁻¹
SYMFS-LTASG	56.119 M⁻¹ s⁻¹	113.394 M⁻¹ s⁻¹	–	–	–
TALGY-LTASG	12792.1 M⁻¹ s⁻¹	323.705 M⁻¹ s⁻¹	–	–	–
TAPIN-LTASG	12792.1 M⁻¹ s⁻¹	12792.1 M⁻¹ s⁻¹	–	–	–
TAVRS-LTASG	–	–	12792.1 M⁻¹ s⁻¹	5889.62 M⁻¹ s⁻¹	–
TGSWP-LTASG	–	–	0 M⁻¹ s⁻¹	113.394 M⁻¹ s⁻¹	–

Substance	Kobs (MMP-2 [2]; [9])	Kobs (MMP-9; [10])	Kobs (MMP-2 [2]; [11])	Kobs (MMP-9; [12])	further results
TKVLW-LTASG	4763.33 M⁻¹ s⁻¹	10866.7 M⁻¹ s⁻¹	–	–	–
TLPHS-LTASG	–	–	12792.1 M⁻¹ s⁻¹	9740.44 M⁻¹ s⁻¹	–
TLTHH-LTASG	0 M⁻¹ s⁻¹	0 M⁻¹ s⁻¹	–	–	–
TMAHP-LTASG	6688.74 M⁻¹ s⁻¹	4470.66 M⁻¹ s⁻¹	–	–	–
TMPYL-LTASG	–	–	1870.4 M⁻¹ s⁻¹	7815.03 M⁻¹ s⁻¹	–
TPVGW-MTASG	12792.1 M⁻¹ s⁻¹	5269.78 M⁻¹ s⁻¹	–	–	–
TRMAL-LTASG	–	–	3438.54 M⁻¹ s⁻¹	84.609 M⁻¹ s⁻¹	–
TRPQH-LTASG	10866.7 M⁻¹ s⁻¹	7815.03 M⁻¹ s⁻¹	–	–	–
TSVLA-LTASG	8321.48 M⁻¹ s⁻¹	4335.13 M⁻¹ s⁻¹	–	–	–
TTALW-LTASG	–	–	6131.32 M⁻¹ s⁻¹	4922.1 M⁻¹ s⁻¹	–
TTSAS-LTASG	–	–	3165.09 M⁻¹ s⁻¹	171.876 M⁻¹ s⁻¹	–
TTSLR-LTASG	–	–	0 M⁻¹ s⁻¹	84.609 M⁻¹ s⁻¹	–
TVLRS-LTASG	12792.1 M⁻¹ s⁻¹	3536.02 M⁻¹ s⁻¹	–	–	–
TVSLP-LTASG	–	–	2097.28 M⁻¹ s⁻¹	355.093 M⁻¹ s⁻¹	–
TWAKM-LTASG	–	–	0 M⁻¹ s⁻¹	292.668 M⁻¹ s⁻¹	–
VAISR-LTASG	–	–	12792.1 M⁻¹ s⁻¹	113.394 M⁻¹ s⁻¹	–
VDHAH-LTASG	5269.78 M⁻¹ s⁻¹	0 M⁻¹ s⁻¹	–	–	–
VDILH-LTASG	3438.54 M⁻¹ s⁻¹	551.253 M⁻¹ s⁻¹	–	–	–
VEAHA-LTASG	–	–	7015.91 M⁻¹ s⁻¹	2837.92 M⁻¹ s⁻¹	–

Source: paper PMC7932537, “Quantitative profiling of protease specificity” (PLoS Computational Biology, 2021)
